According to patent US11033572B2, “Molecular adjuvants for enhanced cytosolic delivery of active agents” (Universiteit Gent, priority 2017, dated 2021):
Structures can show the parent of a compound that is named as a salt.

Columns and labels:
Assay type in all cases: cell-based
H1299_eGFP cells [1] = assay: siNG transfection and sequential adjuvant treatment, eGFP silencing by flow cytometry; conditions: for adjuvant effect on siNG-mediated eGFP silencing: sequential treatment 10, 20 or 40 μM, 20 h, siNGs 2 nM siRNA; for cellular siRNA delivery promoting effect: β2 agonists, 10, 20, 40 μM, 20 h after siNGs
H1299_eGFP cells [2] = assay: Cell viability following CAD incubation (CellTiter GLO); conditions: for concentration with significant additional cytotoxicity compared to siNGs alone: human, 20 h
Description: The silencing potential of siPLK1-NGs was established through evaluating the cell viability. Hereto, we applied the CellTiter GLO® assay (Promega, Belgium) according to the manufacturer's guidelines. Before initiating the assay, the culture plates and reconstituted assay buffer were placed at room temperature for 30 minutes. Next, the culture medium was replaced by 250 μL fresh cell medium and an equal volume of assay buffer was added. To induce complete cell lysis, the plates were shaken during 2 minutes and the signal was allowed to stabilize the following 10 minutes. 100 μL from each well was subsequently transferred to an opaque 96-well plate, which was measured with a GloMax® 96 Microplate Luminometer (Promega, Belgium). Three biological replicates were performed and data are expressed as the mean cell viability±SEM.
Please note that we only applied siCTRL-loaded NGs in this set of experiments. With the interest of evaluating the possible effect of our treatment on cell viability, the CellTiter GLO® assay was performed as described above. Again, three biological replicates were performed and data are expressed as the mean±SEM.

H1299_eGFP cells [3] = assay: Side scatter (cellular granularity) by flow cytometry
Description: For silencing experiments, H1299_eGFP cells were seeded in 24 well plates at a density of 35000 cells/well and were allowed to settle overnight. Subsequently, the cells were transfected and treated with small molecular adjuvants as described previously. Note that for every siEGFP or siPLK1 condition an siCTRL sample was included to account for potential off target effects. SiNG-mediated eGFP silencing was determined by flow cytometry. […] The cells were collected, centrifuged during 5 minutes at 300 g, resuspended in 300 μL flow buffer and kept on ice until analysis. For each sample the forward and side scatter as well as the green fluorescent signal were measured for at least 5000 cells.

H1299_WT cells = assay: Phospholipidosis detection with LipidTOX Red; conditions: 20 h incubation
Description: H1299_WT cells were seeded and allowed to settle overnight as detailed previously. Next, the cells were incubated with a mixture of a 1/1000 dilution of the LipidTOX™ red phospholipidosis detection reagent (Thermo Fisher Scientific, USA) and the desired CAD in complete cell medium. Upon 20 hour incubation, the cells were fixed with 4% PFA and stored at 4° C. covered in Vectashield antifade mounting medium containing DAPI. Imaging occurred with a LSCM and a 100× oil immersion objective. DAPI and the LipidTOX™ red phospholipidosis dye were respectively excited with the 408 nm and 561 nm laser lines and the signal intensity was determined with Image J in minimum 30 cells from 5 images per condition.

[4] = relative to the first four CADs

In the case of OCc1cc(C(O)CNCCCCCCOCCCCc2ccccc2)ccc1O (stereo not shown) [(18) Salmeterol, Salmeterol], the “adjuvant effect on siNG-mediated eGFP silencing” value (from here on “adjuvant effect”) (H1299_eGFP cells [1]) is reported as “significant additional silencing”, the “cellular siRNA delivery promoting effect” value (H1299_eGFP cells [1]) is reported as “significantly improve cellular siRNA delivery” and the “concentration with significant additional cytotoxicity compared to siNGs alone” value (H1299_eGFP cells [2]) is reported as no less than 20 µM.

For COc1ccccc1OCCNCC(O)COc1cccc2[nH]c3ccccc3c12 (stereo not shown) [(26) Carvedilol, Carvedilol], the “adjuvant effect” value (H1299_eGFP cells [1]) was “significant additional silencing”, the “cytotoxicity versus sum of separate components” value (H1299_eGFP cells [2]; 40 μM sequential to siNG) was “exceed the sum of the effects from each separate component” and the “cytotoxicity ranking, CAD treatment alone” value (H1299_eGFP cells [2]; 10-40 μM, no siNG) was “most cytotoxic”.

CNCCC=C1c2ccccc2CCc2ccccc21.Cl [(55) Nortriptyline hydrochloride, Nortriptyline hydrochloride] was tested, and the “adjuvant effect” value (H1299_eGFP cells [1]) was “significant additional silencing” and the “concentration with significant additional cytotoxicity compared to siNGs alone” value (H1299_eGFP cells [2]) was 40 µM.

In the case of CC(C)(C)c1ccc(C(O)CCCN2CCC(C(O)(c3ccccc3)c3ccccc3)CC2)cc1 (stereo not shown) [(56) Terfenadine, Terfenadine], the “effect on % eGFP expression compared to siNGs alone” value (H1299_eGFP cells [1]; 1, 2, 3, 4 or 5 μM) is reported as “significantly reduce eGFP expression” and the “concentration required for silencing effect” value (H1299_eGFP cells [1]; [4]) is reported as “substantially lower concentrations were required”.

CCc1cc2c(cc1CC)CC(NCC(O)c1ccc(O)c3[nH]c(=O)ccc13)C2 (stereo not shown) [(57) Indacaterol maleate, Indacaterol maleate] was tested, and the “cellular siRNA delivery promoting effect” value (H1299_eGFP cells [1]) was “significantly improve cellular siRNA delivery”.

In the case of CCN(CC)CCCC(C)Nc1ccnc2cc(Cl)ccc12 (stereo not shown) [Chloroquine, chloroquine], the “adjuvant effect” value (H1299_eGFP cells [1]) is reported as “enhances gene silencing to a similar extent as the initial molecules tested” and the “adjuvant effect” value (H1299_eGFP cells [1]; listed as CLQ) is reported as “improves the silencing potential of the siNGs to a similar extent”.

For CCCCCCCC/C=C\CCCCCCC(O)C(=O)O (stereo not shown) [Compound 2-OHOA, 2-hydroxy oleic acid], the “effect on gene silencing in combination” value (H1299_eGFP cells [1]; 300 μM 2OHOA combined with 10 μM DL) was “additive effect”.

In the case of CCN(CC)CCO[C@H]1CC[C@@]2(C)C(=CC[C@@H]3[C@@H]2CC[C@]2(C)C(=O)CC[C@@H]32)C1 [Compound U18666A, U18666A], the “effect on siNG-mediated gene silencing” value (H1299_eGFP cells [1]; 30 μM) is reported as “clearly improved siNG-mediated gene silencing” and the “increase in SSC signal” value (H1299_eGFP cells [3]; siNG transfection then 30 μM) is reported as 2 fold.

In the case of Br.COc1ccc2c(c1)[C@]13CCCC[C@@H]1[C@H](C2)N(C)CC3 [Dextromethorphan hydrobromide, monohydrate], the “higher concentration required to obtain similar silencing effects” value (H1299_eGFP cells [1]; [4]) is reported as 10 fold, the “adjuvant effect” value (H1299_eGFP cells [1]) is reported as “does not influence gene silencing” and the “concentration significantly augmenting the SSC signal” value (H1299_eGFP cells [3]; after siNG transfection) is reported as greater than 80 µM. The “LipidTOX Red phospholipid signal” value (H1299_WT cells) was “only higher doses”.

For COc1ccc(CC(C)NCC(O)c2ccc(O)c(NC=O)c2)cc1 (stereo not shown) [formoterol, formoterol fumarate hemisulfate], the “cellular siRNA delivery promoting effect” value (H1299_eGFP cells [1]) was “do not qualify as siRNA delivery enhancers”.

salbutamol hemisulfate was tested, and the “cellular siRNA delivery promoting effect” value (H1299_eGFP cells [1]) was “do not qualify as siRNA delivery enhancers”.
